Experimental data from publication PMC8264259, “A Novel Ruthenium(II) Complex With Lapachol Induces G2/M Phase Arrest Through Aurora-B Kinase Down-Regulation and ROS-Mediated Apoptosis in Human Prostate Adenocarcinoma Cells” (Frontiers in Oncology, 2021).

Key:
[1] = system: Aurora-B; experiment: Western blot, Aurora-B expression; format: cell-based, human; conditions: DU-145, increasing concentrations (0.25-1.5 μM), 24 h
Method: Briefly, DU-145 cells were seeded (1.0 × 10^6 cells/well) into six-well plates and maintained to attach at 37°C in 5% CO2. After 24 h, cells were treated with 0.25, 0.50, 1.0, and 1.5 μM of complex (2). DMSO (0.1% v/v) was used as the vehicle control. After 24 h of incubation, cells were collected and suspended in Western blotting lysis buffer (20 mM Tris-HCl pH 7.4, 150 mM NaCl, 1 mM EDTA, and phosphatase and protease inhibitors). Cell lysates were centrifuged at 11,000g for 15 min at 4 °C, and supernatant was collected. Protein concentrations were quantified using the BCA Protein Assay Kit® (Thermo Fischer Scientific), according to the manufacturer’s instructions. For immunoblotting, equal amounts (30 μg) of total protein were electrophoresed in a NuPAGE® 4-12% Bis-Tris gel and transferred to an Invitrolon™ polyvinylidene difluoride (PVDF) membrane (Novex®, Thermo Fischer Scientific) at 100 V for 1 h. PVDF-membrane was washed two times (5 min each) with Tris-buffered saline plus Tween 20 (TBST, Sigma-Aldrich) and blocked in 5% non-fat milk in phosphate buffered saline with Tween®20 (PBST, Sigma-Aldrich) for 1 h at room temperature. […]

[2] = system: DU-145 cells; experiment: Comet assay, DU-145; format: cell-based, human; conditions: DU-145, 0.5 μM, 24 h
Method: The comet assay was performed to evaluate DNA damage following the method described by ([37]). Briefly, DU-145 and PNT-2 cells were seeded (1.0 × 10^5 cells/well) in 24-well plates and maintained to attach at 37°C in 5% CO2 for 24 h. After, cells were treated with different concentrations of complex (2) for 24 h. DMSO (0.1% v/v) was used as the vehicle control and methyl methanesulfonate (150 μM, Sigma-Aldrich) as DNA damage inducer. Following 24 h of incubation, the cells were collected, and cell viability assay was performed using trypan blue dye. […] Then, cells were mixed with UltraPure™ Low-Melting-Point Agarose (0.5%, Invitrogen®), and added on pre-coated slides with UltraPure™ Agarose (1.5%, Invitrogen®). After agarose solidification, the slides were immersed in a lysis solution (2.5 M NaCl, 100 mM EDTA, 10 mM Tris, 10% DMSO, 1% Triton X-100, pH 10.4) for 18 h at 4°C. […] The nucleoids were identified in a fluorescence microscope (AxioStar Plus, Carl Zeiss Axio Cam MRc-AxioVision 3.1) using a 516 to 560 nm filter, 590 nm filter barrier, in 20× objective with an integrated digital camera. For each treatment, 100 random nucleoids were analyzed, and the tail fluorescence was measured through the Comet Assay IV™ imaging system (Perceptive Instruments^©, Bury St Edmunds, England).

[3] = system: calf thymus DNA (ct-DNA); experiment: DNA minor groove interaction assay with Hoechst 33258; format: binding; conditions: Hoechst 2.7 µM, ct-DNA 125 µM, complex 0-125 µM, 37°C
Method: DNA minor groove interaction was assessed by examining the ability of the complexes to displace Hoechst 33258 (Thermo Fischer Scientific) from calf thymus DNA (ct-DNA) (Sigma-Aldrich). The ct-DNA solution was prepared by dilution of 2 mg of the ct-DNA in 1 ml of Tris-HCl buffer (4.5 mM Tris-HCl, 0.5 mM Tris-base, 50 mM NaCl, pH 7.4), and the concentration was determined by absorption spectrophotometric using the molar absorption coefficient 6600 mol^−1 dm^3 cm^−1 at 260 nm ([38]). Thus, the ct-DNA (125 µM) was incubated with Hoechst (2.7 µM), and the extinction of the fluorescence intensity was monitored by the addition of different concentrations (0–125 µM) of both complexes in Tris-HCl containing 10% of DMSO. Fluorescence emission spectra were recorded from […] to 500 nm after excitation wavelength of 343 nm, using an opaque 96-well plate, in a Synergy H1 Fluorescence Spectrophotometer (BioTek®), at 37°C.

CC(C)=CCC1=C([O-])C(=O)c2ccccc2C1=O.F[P-](F)(F)(F)(F)F.[Ru+2].c1ccc(P(CP(c2ccccc2)c2ccccc2)c2ccccc2)cc1.c1cnc2c(c1)ccc1cccnc12 [complex (2), [Ru(Lap)(dppm)(phen)]PF6]
Aurora-B protein levels [1]: downregulated | DNA damage (comet tail intensity) [2]: significant DNA damage increase | displacement of Hoechst 33258 from ct-DNA (fluorescence) [3]: decrease the fluorescence of the Hoechst-DNA system
